This is an account of results in PMC6336783, “Crystal structure of the multidrug resistance regulator RamR complexed with bile acids” (Scientific Reports, 2019).

Usually Kd stands for the concentration at which binding is half-saturated. A high value points to a looser complex. The term IC50 denotes the concentration that gives 50% inhibition. As a reminder, the inhibition is the relative decrease from the control value, in per cent.

The subject of data set [1] is ramA mRNA levels in ∆ramR Salmonella strain. It is filed as cell-based, Salmonella enterica serovar Typhimurium. As to conditions: LB broth with 5 mM bile acid, qRT-PCR. As for the experimental part: (§1) The bacterial strains and the plasmids used in this study are listed in Supplementary Table 3. The S. enterica serovar Typhimurium strains were the wild-type strain ATCC14028s[21] and its ∆ramR mutant (which was produced as described previously)[22]. Bacterial strains were grown at 37 °C in Luria–Bertani broth supplemented, when appropriate, with ampicillin (100 µg/ml), kanamycin (25 µg/ml) or chloramphenicol (25 µg/ml).
(§2) Bacteria were grown until mid-log phase (OD600 of 0.6) and harvested by centrifugation. Pelleted cells were stabilized with RNAprotect Bacteria Reagent (Qiagen) and stored at −80 °C until needed. Total RNA was extracted using an RNeasy Mini kit (Qiagen). Removal of residual genomic DNA was performed using a Turbo DNA-free kit (Ambion) and checked by negative PCR amplification of the chromosomal sequence. RNA integrity was verified by electrophoresis on a 1% agarose gel. Total RNA (1.5 µg) was reverse-transcribed using random hexamers and the Superscript III First Strand Synthesis System (Applied Biosystems). The expression level of each gene of interest was calculated as the average of the results from three independent cDNA samples. For each cDNA sample and each gene, qRT-PCR runs were performed in duplicated wells and the primers used for qRT-PCR are listed in Supplementary Table 4. The cycling conditions were: 95 °C for 5 min followed by 40 cycles of 95 °C for 10 s and then 60 °C for 15 s. After each run, amplification specificity and the absence of primer dimers were verified using a dissociation curve, acquired by heating the PCR products from 60 °C to 95 °C. The relative quantities of transcripts were determined using a standard curve and normalized against the geometric mean of three reference genes (gmk, gyrB and rrs).
On the technique in general: Quantitative PCR measures a nucleic acid by following its amplification.

For the next data set, the target named is T1, RamR (Salmonella typhimurium, UniProt Q8ZR43).
T1 construct: made in house
T1 sequence (Q8ZR43 1-193): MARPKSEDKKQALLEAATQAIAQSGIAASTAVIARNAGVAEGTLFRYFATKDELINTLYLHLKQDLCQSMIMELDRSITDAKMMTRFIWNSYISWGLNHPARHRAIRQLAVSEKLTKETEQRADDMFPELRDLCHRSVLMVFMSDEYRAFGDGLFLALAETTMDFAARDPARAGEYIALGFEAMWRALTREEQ
Briefly: SPR binding of bile acids to immobilized RamR. Also on record: species or system Salmonella enterica serovar Typhimurium. As for the experimental part:
Because cholic and chenodeoxycholic acids induce ramA in a RamR-dependent manner, we hypothesized that these compounds are recognized by RamR. To test the possibility that cholic and chenodeoxycholic acids may bind to RamR, we employed surface plasmon resonance (SPR) analysis using a Biacore T200 instrument (GE Healthcare).
Dissociation was also recorded for 2 min.
On the technique in general: SPR reads the build-up and loss of mass on a sensor chip optically.

The target of data set [2] is interaction between RamR and PramA (Salmonella typhimurium, UniProt Q8ZR43). Nature of the data set: SPR inhibition of RamR binding to the 100-bp DNA fragment with the RamR-binding site. The following applies: for inhibition at 500 µM: read-out: inhibition of the interaction between RamR and the DNA fragment.
Data set [3] has as its system ramA mRNA levels in wild-type S. Typhimurium strain. Type of data set: cell-based, Salmonella enterica serovar Typhimurium. As to conditions: LB broth with 5 mM bile acid, qRT-PCR. Here is the method: as §1, §2
Data set [4] concerns the molecule itself. Briefly: crystal structure; co-crystals of RamR with a 5-fold molar excess of cholic or chenodeoxycholic acid; hanging drops, vapor diffusion, 25 °C; 20 mM sodium phosphate (pH 6.6), 75 mM NaCl, 2 mM DTT.

As for `C[C@H](CCC(=O)O)[C@H]1CC[C@H]2[C@@H]3[C@H](O)C[C@@H]4C[C@H](O)CC[C@]4(C)[C@H]3CC[C@]12C` [chenodeoxycholic acid, 3α, 7α-dihydroxy-5β-cholan-24-oic acid], in data set [1], the “fold difference in ramA mRNA levels relative to the control in the same strain” value stood at 0.8 fold. Besides, the Kd at RamR worked out at 65.3 µM. Also, in data set [2], the IC50 was found to be 19.2 µM and the inhibition at 500 µM was at least 90%.
As to `C[C@H](CCC(=O)O)[C@H]1CC[C@H]2[C@@H]3[C@H](O)C[C@@H]4C[C@H](O)CC[C@]4(C)[C@H]3C[C@H](O)[C@]12C` [cholic acid, 3α, 7α, 12α-trihydroxy-5β-cholan-24-oic acid], in data set [1], the “fold difference in ramA mRNA levels relative to the control in the same strain” value was found to be 1.6 fold. The same molecule registered a Kd at RamR of 60.5 µM. Also, in data set [2], the IC50 was determined as 33 µM and the inhibition at 500 µM was at least 90%.
Consider `C[C@H](CCC(=O)O)[C@H]1CC[C@H]2[C@@H]3CC[C@@H]4C[C@H](O)CC[C@]4(C)[C@H]3C[C@H](O)[C@]12C` [deoxycholic acid, 3α, 12αdihydroxy-5β-cholan-24-oic acid], for which the entries for the “fold difference in ramA mRNA levels relative to the control in the same strain” value in data set [3] and in data set [1] were 1.7 fold and 2.7 fold, respectively. Also, in data set [2], the IC50 was 318 µM. The inhibition at 500 µM in data set [2] is about 50%.

B1: RamR (natural protein, Salmonella enterica serovar Typhimurium)
chain: ARPKSEDKKQALLEAATQAIAQSGIAASTAVIARNAGVAEGTLFRYFATKDELINTLYLHLKQDLCQSMIMELDRSITDAKMMTRFIWNSYISWGLNHPARHRAIRQLAVSEKLTKETEQRADDMFPELRDLCHRSVLMVFMSDEYRAFGDGLFLALAETTMDFAARDPARAGEYIALGFEAMWRALTREEQ
notes: RamR, TetR-family transcriptional repressor of ramA, Salmonella enterica serovar Typhimurium; ligand-free structure PDB 3VVX; also called multidrug resistance regulator RamR; local transcriptional repressor RamR
In the case of B1, the binding result in data set [4] is “binds”.
